The source of these data is US7501423B2, “Tubulin inhibitor and process for its preparation” (Wyeth, priority 2005, dated 2009).

The series can be described thus: hygroscopic character of the salt forms. Format: physicochemical. The note with it: solid salt form; no method or figures given.

Where a name gives a salt, the structure may show the parent alone.

With “6-chloro-5-{2,6-difluoro-4-[3-(methylamino)propoxy]phenyl}-2-pyrazin-2-yl-N-[(1S)-2,2,2-trifluoro-1-methylethyl]pyrimidin-4-amine hemifumarate”, the “hygroscopicity (hygroscopic character of the salt)” value is listed as “essentially avoids the disadvantage of the hygroscopic character”.

`CNCCCOc1cc(F)c(-c2c(Cl)nc(-c3cnccn3)nc2N[C@@H](C)C(F)(F)F)c(F)c1` [hydrochloride, 6-chloro-5-{2,6-difluoro-4-[3-(methylamino)propoxy]phenyl}-2-pyrazin-2-yl-N-[(1S)-2,2,2-trifluoro-1-methylethyl]pyrimidin-4-amine]: the “hygroscopicity (hygroscopic character of the salt)” value is reported as “very hygroscopic”.
